Test results: patent US20250375450A1, “SMARCA2/4 INHIBITION AS A STRATEGY TO TREAT TUMORS THAT HARBOR ABERRANT BAF ASSEMBLIES” (BOARD OF REGENTS, THE UNIVERSITY OF TEXAS SYSTEM, priority 2022, published 2025)
Entries after “also recorded” stand apart in the source; their conditions may differ.

Legend:
ES3 cells = experiment: Live imaging of ES3 cells; format: cell-based
Protocol: In vivo live imaging of ES3 cells in the presence of AT-301 (IC50˜5 μM).
Briefly, human SMARCA2 was purified, and a high-throughput screen (HTS) of 40,000 compounds was conducted. […] In brief, cells were grown in RPMI media supplemented with 10% Fetal bovine serum (FBS), 1× penicillin, and streptomycin antibiotics. Cells were placed in an incubator with 5% C02 and 50% humidity. When cells reached 90% confluency, cells were harvested, washed twice in 1×PBS, counted using trypan blue exclusion method. Then cells were seeded in 96-well plates (duplicates, n=2) at the density of 20,000 cells per well. Allowed them to attach to the bottom of the well for 1 to 2 hrs and treated with different concentration of AT-301 compound starting at highest concentration of 10 micromolar to serial dilution of the compound to the lowest concentration of 0.039 micromolar. Cells treated with only DMSO were also included as negative control. Cells were monitored for 72 hrs. by live cell imaging method (Incucyte S3) taking images every two hours. The confluency was determined and plotted against time (hours) by using Prism software.

ES6 = experiment: Cell proliferation assay and IC50 measurement (PrestoBlue); format: cell-based; conditions: PrestoBlue cell viability
Protocol: (§1) FIG. 10A-C show representative data illustrating that AT-301 kills Ewing's, RMS, GBM, AML, and other cancer cells. Cell lines were treated with serial dilutions (2×) of AT-301, and IC50 values of each cell line were determined using PrestoBlue dye for cell viability following manufacturer's protocol (Invitrogen, A13261). See also Table 3.
(§2) Jurkat, Molt-4, RH4, RH30, BT40, GBM2, ES3, ES6, ES7, HC827, H1975, H2030 cells: RPMI 1640, 10% FBS, Penicillin (100 units/mL) and streptomycin (100 μg/mL) in the presence of 5% CO2.
(§3) Proliferation of adherent cells was determined on the IncuCyte live-cell imaging system (Essen BioScience). Cells were seeded on clear bottom 96 well plates at a seeding density of 2000 cells/well. Cells were allowed to attach overnight after which the medium was replaced with fresh medium containing serial dilutions (2×) of the compound or DMSO control. Percent confluence was calculated by the IncuCyte software from four different images per well from at least three replicate wells. For non-adherent cells, the 96-well plates were coated with poly-L-lysine before seeding to facilitate cell adhesion. At the end of the assay, dose-dependent cell viability was determined by staining the cells with PrestoBlue (Invitrogen, A13261) as per manufacturer's instructions and IC50 was calculated (FIG. 10).

RH30 = experiment: as above; format: cell-based; conditions: PrestoBlue cell viability
Protocol: as §1, §2, §3

H2030 = experiment: as above; format: cell-based; conditions: Homo sapiens, NCI-H2030, PrestoBlue cell viability
Protocol: as §1, §2, §3

Molt4 = experiment: as above; format: cell-based; conditions: Homo sapiens, MOLT-4, PrestoBlue cell viability
Protocol: as §1, §2, §3

ES3 = experiment: as above; format: cell-based; conditions: PrestoBlue cell viability
Protocol: as §1, §2, §3

ES7 = experiment: as above; format: cell-based; conditions: Homo sapiens, PrestoBlue cell viability
Protocol: as §1, §2, §3

RH4 = experiment: as above; format: cell-based; conditions: PrestoBlue cell viability
Protocol: as §1, §2, §3

Jurkat = experiment: as above; format: cell-based; conditions: Homo sapiens, PrestoBlue cell viability
Protocol: as §1, §2, §3

H1975 = experiment: as above; format: cell-based; conditions: Homo sapiens, NCI-H1975, PrestoBlue cell viability
Protocol: as §1, §2, §3

endometrial cancer cells = experiment: Growth/killing of endometrial cancer cells; format: cell-based; conditions: dose-dependent
Protocol: as §3
Referring to FIG. 10A, AT-301 kills a variety of cancer cells (brain tumors, rhabdomyosarcoma, nonsmall cell lung cancer, leukemia, and Ewing's Sarcoma. We also tested whether AT-301 can kill cells representing gynecological cancers (ovarian and endometrial cancer). As shown in FIG. 10B-C, AT-301 kills a variety of ovarian and endometrial cancer cells.

RH41 cells = experiment: Cell cycle analysis, propidium iodide/RNase flow cytometry; format: cell-based; conditions: 7.5 μM AT-301, 24 hours
Protocol: Referring to FIG. 11A and FIG. 11B, RH4 (FIG. 11A) and ES3 (FIG. 11B) cells were treated with the indicated concentrations of BAF-X-1 or DMSO in triplicate and apoptosis was detected using the IncuCyte Caspase 3/7 green dye (Sartorius). Brightfield and green fluorescence images were captured every 2 hours from 4 fields per well on the IncuCyte live cell imager. The proportion of caspase positive (green) cells relative to % confluence of the well was calculated on the IncuCyte software and plotted against time. Referring to FIG. 11C and FIG. 11D, RH41 cells were treated with 7.5 μM AT-301 (FIG. 11D) or DMSO (FIG. 11C) for 24 hours, harvested with accutase, washed, and fixed in 70% ethanol. They were subsequently stained with propidium iodide/RNase and fluorescence was analyzed on BD flow cytometer. Resulting data was analyzed using FlowJo software.
To test the alterations in cell cycle upon AT-301 treatment, RH41 cells were cultured in 12 well plates, detached using Accutase (Corning, 25-058-Cl), washed with PBS, and fixed in 70% ethanol. For staining, the fixed cells were washed with PBS and stained with FxCycle PI/RNase staining solution (Invitrogen, F10797) as per the supplier's directions. Fluorescence intensity of stained cells was measured on (BD system) and analyzed using FlowJo.

SMARCA2 = molecular target: T1, SMARCA2 (Homo sapiens, UniProt P51531); experiment: ATPase activity of SMARCA2 on different DNA/chromatin substrates (enzyme-coupled phosphate release assay); format: biochemical; conditions: 5 μM AT-301; 147 bp nucleosomal DNA, 29 bp duplex DNA, NCP
T1 construct: The SMARCA2-1 gene (amino acids 437-1493) encompassing all domains; made in house; host or cells: expiSF9 insect cells (baculovirus, pFASTBac1)
T1 sequence (P51531 437-1493): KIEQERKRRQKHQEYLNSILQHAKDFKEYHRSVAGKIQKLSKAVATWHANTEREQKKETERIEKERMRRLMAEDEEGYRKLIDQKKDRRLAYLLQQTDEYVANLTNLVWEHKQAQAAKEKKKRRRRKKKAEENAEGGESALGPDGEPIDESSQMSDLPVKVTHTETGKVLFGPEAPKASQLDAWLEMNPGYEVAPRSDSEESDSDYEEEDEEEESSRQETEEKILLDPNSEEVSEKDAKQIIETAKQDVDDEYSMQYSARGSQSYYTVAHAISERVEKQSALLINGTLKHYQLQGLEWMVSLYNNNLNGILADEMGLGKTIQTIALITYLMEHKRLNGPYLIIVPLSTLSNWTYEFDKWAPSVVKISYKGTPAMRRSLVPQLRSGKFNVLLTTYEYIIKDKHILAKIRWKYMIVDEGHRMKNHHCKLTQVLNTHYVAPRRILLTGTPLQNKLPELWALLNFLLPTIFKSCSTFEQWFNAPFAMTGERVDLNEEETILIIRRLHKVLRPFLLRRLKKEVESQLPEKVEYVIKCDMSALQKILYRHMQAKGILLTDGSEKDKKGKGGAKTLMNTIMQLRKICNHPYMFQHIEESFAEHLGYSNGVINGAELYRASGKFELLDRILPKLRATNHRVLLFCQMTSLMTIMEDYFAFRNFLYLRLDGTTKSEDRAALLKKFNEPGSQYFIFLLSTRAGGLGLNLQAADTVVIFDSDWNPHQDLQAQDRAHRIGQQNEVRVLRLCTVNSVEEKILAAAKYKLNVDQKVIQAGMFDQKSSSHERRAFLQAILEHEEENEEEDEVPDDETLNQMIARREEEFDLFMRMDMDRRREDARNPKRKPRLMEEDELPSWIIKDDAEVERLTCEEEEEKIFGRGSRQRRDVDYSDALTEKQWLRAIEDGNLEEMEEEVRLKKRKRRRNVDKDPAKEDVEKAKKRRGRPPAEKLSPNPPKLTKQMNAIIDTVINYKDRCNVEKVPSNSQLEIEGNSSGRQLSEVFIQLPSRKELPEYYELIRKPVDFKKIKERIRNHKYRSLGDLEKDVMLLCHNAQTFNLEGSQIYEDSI
Excerpt: FIG. 9A-C show representative data illustrating that AT-301 attenuates the ATPase activity of SMARCA2 in different DNA/chromatin substrates.
In brief, the disclosed ATPase assay is based on the inorganic phosphate (Pi) release from the enzymatic reaction, wherein the substrate 2-amino-6-mercapto-7-methylpurine ribose (MESG) is converted by purine phosphorylase (PNP) to ribose 1-phosphate and 2-amino-6-mercapto-7-methylpurine. This conversion changes the spectrophotometric shift of MSEG absorbance from 330 nm to 360 nm (FIG. 1C and FIG. 1D).
SMARCA2 can interact with nucleosomal, extra nucleosomal DNA, and a DNA wrapped around the histone octamer. These substrates were prepared, and the ATPase activity of SMARCA2 on these substrates were evaluated in the presence and absence of AT-301. Specifically, as shown in FIG. 9A-C, mononucleosome core particles (NCP) were reconstituted from purified histone octamer and 147 bp widom nucleosomal DNA. An electromobility shift assay (EMSA) was used to monitor the direct binding of SMARCA2 to NCP. […] The ATPase activity of SMARCA2 was also evaluated on alternative substrates (a 29-mer duplex DNA, 147 bp nucleosomal DNA, and reconstituted NCP).

In the case of Clc1ccc(CNc2nc(NC3CCCC3)nc3ccccc23)cc1Cl [AT-301, N^2-cyclopentyl-N^4-(3,4-dichlorobenzyl)quinazoline-2,4-diamine], the IC50 (ES3 cells) is reported as roughly 5 µM, the IC50 (ES6) is reported as 2.84 µM and the IC50 (RH30) is reported as 2.96 µM. It also gave an IC50 (H2030) of 6.26 µM, an IC50 (Molt4) of 4.39 µM and an IC50 (ES3) of 5.21 µM. It also gave an IC50 (ES7) of 4.83 µM, an IC50 (RH4) of 6.54 µM and an IC50 (Jurkat) of 2.81 µM. For the same compound, the IC50 (H1975) was 5.31 µM, the “Growth/killing of endometrial cancer cells” value (endometrial cancer cells) was “kills; also recorded: inhibits the growth” and the Cell cycle alteration (RH41 cells) was “arrested in GO-Gi phase”. For the same compound, the “ATPase activity of SMARCA2 on different substrates” value (SMARCA2) was “uniformly reduced; also recorded: significantly attenuated”.
